The values below come from the Kinase Knowledgebase extract (Sharma et al. 2016).

“And” between values parts separate entries of the source, which are not always exact repeats. Equal entries are not always repeated. A value given as a limit tells only on which side of the number the result lay.

For the experiment, the target named is CDK2 (human) (UniProt P24941). Kind of experiment: Enzyme Assay.

As to `C1=CCNCc2cccc(c2)Nc2nccc(n2)-c2cccc(c2)OCC1`, the IC50 is ≤ 1000 nM.
For the molecule `CN1CC=CCCOc2cccc(c2)-c2ccnc(n2)Nc2ccc(OCCN3CCOCC3)c(c2)C1`, the 50% inhibitory concentration (IC50) is ≤ 1000 nM.
In the case of `O=C1NCC=CCOCc2cccc(c2)Nc2nccc(n2)-c2cccc1c2`, the IC50 was > 5000 nM.
For the molecule `CN1CC=CCCOc2cccc(c2)-c2ccnc(n2)Nc2ccc(OCCN3CCCCC3)c(c2)C1`, the 50% inhibitory concentration (IC50) was ≤ 1000 nM.
With `COc1ccc2cc1COCC=CCOc1cccc(c1)-c1ccnc(n1)N2`, the half-inhibitory concentration (IC50) was ≤ 1000 nM and > 5000 nM.
Under `C1=CCOCc2cc(ccc2OCCN2CCCC2)Nc2nccc(n2)-c2cccc(c2)COC1` stands 1000 to 5000 nM; under `CN1CC=CCCOc2cccc(c2)-c2ccnc(n2)Nc2cc(ccn2)C1`, 1000 to 5000 nM; under `Fc1ccc2cc1COCC=CCOCc1cc(ccc1OCCN1CCCC1)Nc1nccc-2n1`, 1000 to 5000 nM.
Regarding `CN1CC=CCCOc2cccc(c2)-c2ccnc(n2)Nc2ccc(OCCN3CCCC3)c(c2)C1`, the concentration for half-maximal inhibition (IC50) was ≤ 1000 nM.
For the molecule `C1=CCOCc2cc(ccc2OCCN2CCCC2)Nc2nccc(n2)-c2cc(co2)COC1`, the IC50 was > 5000 nM.
Consider `C1=CCOCc2cc(ccc2OCCN2CCCC2)Nc2nccc(n2)C2=CC=C(COC1)S2`, for which the IC50 is > 5000 nM.
For `C1=CCOCc2cc(ccc2OCCN2CCCC2)Nc2nccc(n2)-c2coc(c2)COC1`, the IC50 is > 5000 nM.
For `C1=CCN(C2CC2)Cc2cc(ccc2OCCN2CCOCC2)Nc2nccc(n2)-c2cccc(c2)OCC1`, the IC50 was ≤ 1000 nM.
In the case of `C1=CCOCc2cc(ccc2OCCN2CCCC2)Nc2nccc(n2)-c2cncc(c2)COC1`, the half-maximal inhibitory concentration (IC50) was 1000 to 5000 nM.
Then `CN1Cc2cccc(c2)Nc2nccc(n2)-c2cccc(c2)OCCC2CC2C1` (stereo unspecified), with ≤ 1000 nM; and `CN1CC=CCCOc2cc(F)cc(c2)-c2ccnc(n2)Nc2cccc(c2)C1`, with ≤ 1000 nM.
For `C1=CCOCc2cc(ccc2OCCN2CCCC2)Nc2nccc(n2)C2=CC=C(COC1)O2`, the IC50 is > 5000 nM.
On to `CCS(=O)(=O)CCOc1ccc2cc1CN(C)CC=CCCOc1cccc(c1)-c1ccnc(n1)N2`, for which the half-inhibitory concentration (IC50) is ≤ 1000 nM.
Under `C1=CCOCc2cc(ccc2N2CCOCC2)Nc2nccc(n2)-c2cccc(c2)COC1` stands > 5000 nM; under `CN1CC=CCCOc2cc(F)cc(c2)-c2ccnc(n2)Nc2ccc(OCCN3CCCC3)c(c2)C1`, ≤ 1000 nM; under `CN1CC=CCOCC2=CC=C(O2)c2ccnc(n2)Nc2cccc(c2)C1`, ≤ 1000 nM.
Under `O=C1CCC=CCOCc2cccc(c2)Nc2nccc(n2)-c2cccc(c2)N1` stands 1000 to 5000 nM; under `CN1CC=CCOCC2=CC=C(S2)c2ccnc(n2)Nc2ccc(OCCN3CCCC3)c(c2)C1`, ≤ 1000 nM.
As to `CCN(CC)CCOc1ccc2cc1COCC=CCCOc1cccc(c1)-c1nc(ncc1C)N2`, the IC50 was > 5000 nM.
For `CCN(CC)CCOc1ccc2cc1COCC=CCCOc1cc(ccc1OC)-c1ccnc(n1)N2`, the IC50 was > 5000 nM.
Turning to `CCN(CC)CCOc1ccc2cc1COCC=CCCOc1cccc(c1)-c1ccnc(n1)N2`, the half-maximal inhibitory concentration (IC50) was > 5000 nM.
In turn, `COc1cc2cc(c1OCCN1CCCC1)COCC=CCOCc1cccc(c1)-c1ccnc(n1)N2` registered a half-inhibitory concentration (IC50) of 1000 to 5000 nM.
Take `CN1CCN(c2ccc3cc2COCC=CCOCc2cccc(c2)-c2ccnc(n2)N3)CC1`: the IC50 was > 5000 nM.
Turning to `C1=CCOCc2cc(ccc2OCCN2CCCC2)Nc2nccc(n2)-c2csc(c2)COC1`, the 50% inhibitory concentration (IC50) is > 5000 nM.
`CN1CC=CCCOc2cccc(c2)-c2ccnc(n2)Nc2ccc(OCCn3cncn3)c(c2)C1`: the IC50 was ≤ 1000 nM.
For `CCN(CC)CCOc1ccc2cc1CN(C)CC=CCCOc1cccc(c1)-c1ccnc(n1)N2`, the half-maximal inhibitory concentration (IC50) was ≤ 1000 nM.
With `c1cc2cc(c1)-c1ccnc(n1)Nc1ccc(OCCN3CCCC3)c(c1)COCC1CC1COC2` (stereo unspecified), the half-inhibitory concentration (IC50) fell in the range of 1000 to 5000 nM.
As for `CN1CC=CCCOc2cc(ccc2N)-c2ccnc(n2)Nc2cccc(c2)C1`, the concentration for half-maximal inhibition (IC50) is ≤ 1000 nM.
Then `Cc1cnc2nc1-c1cccc(c1)OCCC=CCN(C)Cc1cccc(c1)N2`, with ≤ 1000 nM.
For the molecule `CN1CC=CCCOc2cccc(c2)-c2ccnc(n2)Nc2ccc(N3CCOCC3)c(c2)C1`, the IC50 is ≤ 1000 nM.
Turning to `Fc1cc2cc(c1)-c1ccnc(n1)Nc1ccc(OCCN3CCCC3)c(c1)COCC=CCCO2`, the IC50 lay in the range of 1000 to 5000 nM.
`CN1CC=CCC(=O)Nc2cccc(c2)-c2ccnc(n2)Nc2cccc(c2)C1` returned a concentration for half-maximal inhibition (IC50) of 1000 to 5000 nM.
As for `CN1CC=CCCOc2cccc(c2)-c2ccnc(n2)Nc2cc(N)cc(c2)C1`, the IC50 is ≤ 1000 nM.
In the case of `CCN(CC)CCOc1ccc2cc1COCC=CCOCc1cccc(c1)-c1ccnc(n1)N2`, the IC50 lay within 1000 to 5000 nM.
For `COc1ccc2cc1COCC=CCOCc1cc(ccc1OCCN1CCCC1)Nc1nccc-2n1`, the IC50 was > 5000 nM.
As for `C1=CCN(C2CC2)Cc2cccc(c2)Nc2nccc(n2)-c2cccc(c2)OCC1`, the IC50 was ≤ 1000 nM.

As a reminder, the IC50 is the concentration needed to halve the response being measured. High values mean weaker potency, low ones greater potency.
